Data reported in patent US7745570B2, “PH dependent adhesive peptides” (Kansas State University Research Foundation, priority 2005, dated 2010).
“Also recorded” adds a separate entry of the source. Where no end group is shown, it is not given here.

Tests used:
[1] = modified Wimley-White scale, side chain values; cited from earlier work
[2] = Wimley and White Hydrophobicity Scale; cited from earlier work
[3] = Viscosity of peptide solutions, Brookfield viscometer; format: physicochemical; conditions: peptide 4%, 20 rpm, RT
Procedure: Viscosity: Viscosity of peptides at different pH was measured in a Brookfield RVDV-III 5^+ viscometer (Middleboro, Mass.). All the measurements were taken at 2.5 minute intervals using 8 mL samples at ambient temperature with a spindle SC4-21 operating at 20 rpm. Five data points were averaged for each reported value.

[4] = Solubility and ionisation of peptides at the test pH values; format: physicochemical; conditions: for Solubility: aqueous peptide solutions at pH 2.2, 6.8, 12.0
[5] = MALDI mass spectrometry of dried/hot-pressed peptide for hydrolysis of peptide bonds; format: physicochemical; conditions: 4% peptide pH 12, dried at RT or 130° C. without pressure or 130° C. with pressure
Procedure: The same K3h9K3 samples used in the FTIR studies were analyzed by matrix assisted, laser desorption mass spectrometry. At elevated pH and temperature, the spontaneous hydrolysis of peptide bonds could occur. Dried samples taken from glass slides treated with 4% peptide solutions at pH 12 and dried at either room temperature or 130° C. without pressure as well as dried at 130° C. with pressure were dissolved in acetonitrile containing matrix and transferred to mass spectral target slides.

[6] = Circular dichroism at 25° C. to 75° C. (conformational stability); format: physicochemical; conditions: 250 μM, pH 12, 25° C. to 75° C.
Procedure: Circular Dichroism Spectra: The data set out in FIG. 4 were collected according to the following protocol. The circular dichroic spectra were recorded on a J-720 (Jasco, Japan) spectropolarimeter with a Neslab RTE-111M circulator using a 1.0 mm quartz cuvette from 260 to 180 nm. The spectra are an average of five scans recorded at a rate of 20 nm/min with a 0.2 nm step interval. For circular dichroism measurements, 1 mL samples of synthetic peptide were prepared with a different pH buffer solution. The following buffers were used: 60 mM glycine, 60 mM NaCl, 40 mM HCl, pH 2.2; 50 mM glycine, 50 mM NaCl, 0.2 mM NaOH, pH 6.8; and 45 mM glycine, 45 mM NaCl, 55 mM NaOH, pH 12. The final peptide concentration was 250 μM. All spectra were corrected by subtracting the baseline of the buffer solution recorded under the same condition. Unless otherwise noted, spectra were recorded at room temperature. The CD absorbances were expressed as the mean residue ellipticity in units of degrees cm^2 dmol^−1. Temperatures were controlled with a refrigerated circulator bath (Neslab RTE-111M). Temperatures were controlled between 25° C. to 75° C.

C[C@H](N)C(=O)O [Ala, alanine]
ΔGresidue value [1]: -0.5 kcal/mol | ΔG for transfer from water to organic phase [2]: 0.50 kcal/mol

NCC(=O)O [Gly]
ΔG for transfer from water to organic phase [2]: 1.15 kcal/mol

CSCC[C@H](N)C(=O)O [Met]
ΔG for transfer from water to organic phase [2]: -0.67 kcal/mol

N[C@@H](Cc1ccccc1)C(=O)O [Phe]
ΔG for transfer from water to organic phase [2]: -1.71 kcal/mol

N[C@@H](CO)C(=O)O [Ser]
ΔG for transfer from water to organic phase [2]: 0.46 kcal/mol

CC(C)[C@H](N)C(=O)O [Val, valine]
ΔGresidue value [1]: 0.46 kcal/mol | ΔG for transfer from water to organic phase [2]: -0.46 kcal/mol

EEE-FLIVIGSII-KKK (EEEFLIVIGSIIKKK) [Peptide E3h9K3]
Viscosity ([3]; pH 2.2): 190 mPa · s | Viscosity ([3]; pH 6.8): 245 mPa · s | Viscosity ([3]; pH 12): 20 mPa · s

EEEFLIVIGSIIEEE-OH [Peptide E3h9E3, EEE-FLIVIGSII-EEE]
Viscosity ([3]; pH 12): 20 mPa · s | Solubility [4]: insoluble below and somewhat above its pI; also recorded: insoluble at the two lower pH values

HHHFLIVIGSIIHHH [Peptide H3h9H3]
Solubility [4]: insoluble at all pH values

KKK-FLIVIGSII-EEE (KKKFLIVIGSIIEEE) [Peptide K3h9E3]
Viscosity ([3]; pH 2.2): 210 mPa · s | Viscosity ([3]; pH 6.8): 305 mPa · s | Viscosity ([3]; pH 12): 20 mPa · s

KKK-FLIVIGSII-KKK (KKKFLIVIGSIIKKK) [Peptide K3h9K3]
Viscosity ([3]; pH 2.2): 20 mPa · s | Viscosity ([3]; pH 6.8): 20 mPa · s | Viscosity ([3]; pH 12): 290 mPa · s | Peptide integrity (hydrolysis of peptide bonds) [5]: intact monomer however no detectable amounts of fragmented peptide | Effect of temperature on CD spectra (conformation) [6]: did not alter the CD spectra

RRRFLIVIGSIIRRR [Peptide R3h9R3]
Ionisation state ([4]; pH 12.0): not fully ionized
